Data: patent US10757941B2, “Microbiocidal oxadiazole derivatives” (SYNGENTA PARTICIPATIONS AG, priority 2016, dated 2020)

Tests used:
[1] = system: Puccinia recondita f. Sp. Tritici; assay: Fungicidal activity against Puccinia recondita f. sp. tritici / wheat / leaf disc preventative (brown rust); format: in vivo; settings: foliar, 200 ppm in the applied formulation, wheat leaf segments cv. Kanzler, preventative (inoculated 1 day after application), assessed 7 to 9 days after application, compared to untreated, read-out: disease control
Protocol: Leaf disks or leaf segments of various plant species are cut from plants grown in a greenhouse. The cut leaf disks or segments are placed in multiwell plates (24-well format) onto water agar. The leaf disks are sprayed with a test solution before (preventative) or after (curative) inoculation. Compounds to be tested are prepared as DMSO solutions (max. 10 mg/ml) which are diluted to the appropriate concentration with 0.025% Tween20 just before spraying. The inoculated leaf disks or segments are incubated under defined conditions (temperature, relative humidity, light, etc.) according to the respective test system. A single evaluation of disease level is carried out 3 to 14 days after inoculation, depending on the pathosystem. Percent disease control relative to the untreated check leaf disks or segments is then calculated. Example 1: Fungicidal Activity Against Puccinia recondita f. Sp. Tritici/Wheat/Leaf Disc Preventative (Brown Rust) Wheat leaf segments cv. Kanzler were placed on agar in multiwell plates (24-well format) and sprayed with the formulated test compound diluted in water. The leaf disks were inoculated with a spore suspension of the fungus 1 day after application. The inoculated leaf segments were incubated at 19° C. and 75% relative humidity (rh) under a light regime of 12 hours light/12 hours darkness in a climate cabinet and the activity of a compound was assessed as percent disease control compared to untreated when an appropriate level of disease damage appears in untreated check leaf segments (7 to 9 days after application). The following compounds at 200 ppm in the applied formulation give at least 80% disease control in this test when compared to untreated control leaf disks under the same conditions, which show extensive disease development.

[2] = system: Puccinia recondita f. Sp. Tritici; assay: Fungicidal activity against Puccinia recondita f. sp. tritici / wheat / leaf disc curative (brown rust); format: in vivo; settings: foliar, 200 ppm in the applied formulation, wheat leaf segments cv. Kanzler, curative (applied 1 day after inoculation), assessed 6 to 8 days after application, compared to untreated, read-out: disease control
Protocol: Leaf disks or leaf segments of various plant species are cut from plants grown in a greenhouse. The cut leaf disks or segments are placed in multiwell plates (24-well format) onto water agar. The leaf disks are sprayed with a test solution before (preventative) or after (curative) inoculation. Compounds to be tested are prepared as DMSO solutions (max. 10 mg/ml) which are diluted to the appropriate concentration with 0.025% Tween20 just before spraying. The inoculated leaf disks or segments are incubated under defined conditions (temperature, relative humidity, light, etc.) according to the respective test system. A single evaluation of disease level is carried out 3 to 14 days after inoculation, depending on the pathosystem. Percent disease control relative to the untreated check leaf disks or segments is then calculated. Example 2: Fungicidal Activity Against Puccinia recondita f. Sp. Tritici/Wheat/Leaf Disc Curative (Brown Rust) Wheat leaf segments cv. Kanzler are placed on agar in multiwell plates (24-well format). The leaf segments are then inoculated with a spore suspension of the fungus. Plates were stored in darkness at 19° C. and 75% relative humidity. The formulated test compound diluted in water was applied 1 day after inoculation. The leaf segments were incubated at 19° C. and 75% relative humidity under a light regime of 12 hours light/12 hours darkness in a climate cabinet and the activity of a compound was assessed as percent disease control compared to untreated when an appropriate level of disease damage appears in untreated check leaf segments (6 to 8 days after application). The following compounds at 200 ppm in the applied formulation give at least 80% disease control in this test when compared to untreated control leaf disks under the same conditions, which show extensive disease development.

Phakopsora pachyrhizi = assay: Fungicidal activity against Phakopsora pachyrhizi / soybean / leaf disc preventative (Asian soybean rust); format: in vivo; settings: foliar, 200 ppm in the applied formulation, soybean leaf disks, preventative (inoculated one day after application), assessed 12 to 14 days after application, compared to untreated, read-out: disease control
Protocol: Leaf disks or leaf segments of various plant species are cut from plants grown in a greenhouse. The cut leaf disks or segments are placed in multiwell plates (24-well format) onto water agar. The leaf disks are sprayed with a test solution before (preventative) or after (curative) inoculation. Compounds to be tested are prepared as DMSO solutions (max. 10 mg/ml) which are diluted to the appropriate concentration with 0.025% Tween20 just before spraying. The inoculated leaf disks or segments are incubated under defined conditions (temperature, relative humidity, light, etc.) according to the respective test system. A single evaluation of disease level is carried out 3 to 14 days after inoculation, depending on the pathosystem. Percent disease control relative to the untreated check leaf disks or segments is then calculated. Example 3: Fungicidal Activity Against Phakopsora pachyrhizi/Soybean/Leaf Disc Preventative (Asian Soybean Rust) Soybean leaf disks are placed on water agar in multiwell plates (24-well format) and sprayed with the formulated test compound diluted in water. One day after application leaf discs are inoculated by spraying a spore suspension on the lower leaf surface. After an incubation period in a climate cabinet of 24-36 hours in darkness at 20° C. and 75% rh leaf disc are kept at 20° C. with 12 h light/day and 75% rh. The activity of a compound is assessed as percent disease control compared to untreated when an appropriate level of disease damage appears in untreated check leaf disks (12 to 14 days after application). The following compounds at 200 ppm in the applied formulation give at least 80% disease control in this test when compared to untreated control leaf disks under the same conditions, which show extensive disease development.

[3] = system: Glomerella lagenarium (Colletotrichum lagenarium); assay: Fungicidal activity against Glomerella lagenarium (Colletotrichum lagenarium) liquid culture / cucumber / preventative (anthracnose); format: cell-based; settings: Colletotrichum orbiculare; 20 ppm in the applied formulation; liquid culture in PDB, 24° C.; inhibition of growth measured photometrically 3 to 4 days after application; compared to untreated; read-out: disease control
Protocol: Mycelia fragments or conidia suspensions of a fungus prepared either freshly from liquid cultures of the fungus or from cryogenic storage, are directly mixed into nutrient broth. DMSO solutions of the test compound (max. 10 mg/ml) are diluted with 0.025% Tween20 by a factor of 50 and 10 μl of this solution is pipetted into a microtiter plate (96-well format). The nutrient broth containing the fungal spores/mycelia fragments is then added to give an end concentration of the tested compound. The test plates are incubated in the dark at 24° C. and 96% relative humidity. The inhibition of fungal growth is determined photometrically after 2 to 7 days, depending on the pathosystem, and percent antifungal activity relative to the untreated check is calculated. Example 4: Fungicidal Activity Against Glomerella lagenarium (Colletotrichum lagenarium) Liquid Culture/Cucumber/Preventative (Anthracnose) Conidia of the fungus from cryogenic storage are directly mixed into nutrient broth (PDB—potato dextrose broth). After placing a (DMSO) solution of test compound into a microtiter plate (96-well format), the nutrient broth containing the fungal spores is added. The test plates are incubated at 24° C. and the inhibition of growth is measured photometrically 3 to 4 days after application. The following compounds at 20 ppm in the applied formulation give at least 80% disease control in this test when compared to untreated control under the same conditions, which show extensive disease development.

Uromyces viciae-fabael = assay: Fungicidal activity against Uromyces viciae-fabae / field bean / leaf disc preventative (faba-bean rust); format: in vivo; settings: foliar, 288 h, 100 ppm in the applied formulation, field bean leaf discs, preventative (inoculated two hours after application), assessed 12 days after application, compared to untreated, read-out: disease control
Protocol: Leaf disks or leaf segments of various plant species are cut from plants grown in a greenhouse. The cut leaf disks or segments are placed in multiwell plates (24-well format) onto water agar. The leaf disks are sprayed with a test solution before (preventative) or after (curative) inoculation. Compounds to be tested are prepared as DMSO solutions (max. 10 mg/ml) which are diluted to the appropriate concentration with 0.025% Tween20 just before spraying. The inoculated leaf disks or segments are incubated under defined conditions (temperature, relative humidity, light, etc.) according to the respective test system. A single evaluation of disease level is carried out 3 to 14 days after inoculation, depending on the pathosystem. Percent disease control relative to the untreated check leaf disks or segments is then calculated. Example 5: Fungicidal Activity Against Uromyces viciae-fabael Field Bean/Leaf Disc Preventative (Faba-Bean Rust) Field bean leaf discs are placed on water agar in multiwell plates (96-well format) and 10 μl of the formulated test compound diluted in acetone and a spreader pipetted onto the leaf disc. Two hours after application leaf discs are inoculated by spraying a spore suspension on the lower leaf surface. The leaf discs are incubated in a climate cabinet at 22° C. with 18 hour day and 70% relative humidity. The activity of a compound is assessed as percent disease control compared to untreated when an appropriate level of disease damage appears in untreated check leaf disks (12 days after application). The following compounds at 100 ppm in the applied formulation give at least 80% disease control in this test when compared to untreated control leaf discs under the same conditions, which show extensive disease development.

O=C(NCC1CC1)c1ccc(-c2noc(C(F)(F)F)n2)c(F)c1 [Compound 1.20, N-(cyclo-propylmethyl)-3-fluoro-4-[5-(trifluoromethyl)-1,2,4-oxadiazol-3-yl]benzamide]
≥ 80%: pest or weed control at 200 ppm [1] | pest or weed control at 200 ppm [2] | pest or weed control at 200 ppm (Phakopsora pachyrhizi) | inhibition of growth at 20 ppm [3]

COCCN(Cc1ccccc1)C(=O)c1ccc(-c2noc(C(F)(F)F)n2)c(F)c1 [Compound 1.16, N-benzyl-3-fluoro-N-(2-methoxyethyl)-4-[5-(trifluoromethyl)-1,2,4-oxadiazol-3-yl]benzamide]
≥ 80%: pest or weed control at 200 ppm [1] | pest or weed control at 200 ppm [2] | pest or weed control at 200 ppm (Phakopsora pachyrhizi) | inhibition of growth at 20 ppm [3] | pest or weed control at 100 ppm (Uromyces viciae-fabael)

O=C(NCCc1cccs1)c1ccc(-c2noc(C(F)(F)F)n2)c(F)c1 [Compound 1.35, 3-fluoro-N-[2-(2-thienyl)ethyl]-4-[5-(trifluoromethyl)-1,2,4-oxadiazol-3-yl]benzamide]
≥ 80%: pest or weed control at 200 ppm [1] | pest or weed control at 200 ppm [2] | pest or weed control at 200 ppm (Phakopsora pachyrhizi) | inhibition of growth at 20 ppm [3] | pest or weed control at 100 ppm (Uromyces viciae-fabael)

O=C(NCC1COCCO1)c1ccc(-c2noc(C(F)(F)F)n2)c(F)c1 (stereo not shown) [Compound 1.12, N-(1,4-dioxan-2-ylmethyl)-3-fluoro-4-[5-(trifluoromethyl)-1,2,4-oxadiazol-3-yl]benzamide]
≥ 80%: pest or weed control at 200 ppm [1] | pest or weed control at 200 ppm [2] | pest or weed control at 200 ppm (Phakopsora pachyrhizi) | inhibition of growth at 20 ppm [3] | pest or weed control at 100 ppm (Uromyces viciae-fabael)

O=C(NCC1CCOC1)c1ccc(-c2noc(C(F)(F)F)n2)c(F)c1 (stereo not shown) [Compound 1.14, 3-fluoro-N-(tetrahydrofuran-3-ylmethyl)-4-[5-(trifluoromethyl)-1,2,4-oxadiazol-3-yl]benzamide]
≥ 80%: pest or weed control at 200 ppm [1] | pest or weed control at 200 ppm [2] | pest or weed control at 200 ppm (Phakopsora pachyrhizi) | inhibition of growth at 20 ppm [3] | pest or weed control at 100 ppm (Uromyces viciae-fabael)

CCOCC1(NC(=O)c2ccc(-c3noc(C(F)(F)F)n3)c(F)c2)CC1 [Compound 1.40, N-[1-(ethoxy-methyl)cyclopropyl]-3-fluoro-4-[5-(trifluoromethyl)-1,2,4-oxadiazol-3-yl]benzamide]
≥ 80%: pest or weed control at 200 ppm [1] | pest or weed control at 200 ppm [2] | pest or weed control at 200 ppm (Phakopsora pachyrhizi) | inhibition of growth at 20 ppm [3] | pest or weed control at 100 ppm (Uromyces viciae-fabael)

CCCN(CC1CC1)C(=O)c1ccc(-c2noc(C(F)(F)F)n2)c(F)c1 [Compound 1.41, N-(cyclopropyl-methyl)-3-fluoro-N-propyl-4-[5-(trifluoromethyl)-1,2,4-oxadiazol-3-yl]benzamide]
≥ 80%: pest or weed control at 200 ppm [2] | pest or weed control at 200 ppm (Phakopsora pachyrhizi) | inhibition of growth at 20 ppm [3] | pest or weed control at 100 ppm (Uromyces viciae-fabael)

CN(C(=O)c1ccc(-c2noc(C(F)(F)F)n2)c(F)c1)C1CCN(C(=O)OC(C)(C)C)C1 (stereo not shown) [Compound 1.2, tert-butyl 3-[[3-fluoro-4-[5-(trifluoromethyl)-1,2,4-oxadiazol-3-yl]benzoyl]-methyl-amino]pyrrolidine-1-carboxylate]
≥ 80%: pest or weed control at 200 ppm [1] | pest or weed control at 200 ppm [2] | inhibition of growth at 20 ppm [3] | pest or weed control at 100 ppm (Uromyces viciae-fabael)

CN(C(=O)c1ccc(-c2noc(C(F)(F)F)n2)c(F)c1)c1ccccn1 [Compound 1.5, 3-fluoro-N-methyl-N-(2-pyridyl)-4-[5-(trifluoromethyl)-1,2,4-oxadiazol-3-yl]benzamide]
≥ 80%: pest or weed control at 200 ppm [1] | pest or weed control at 200 ppm [2] | inhibition of growth at 20 ppm [3]

O=C(Nc1nccnn1)c1ccc(-c2noc(C(F)(F)F)n2)c(F)c1 [Compound 1.42, 3-fluoro-N-(1,2,4-triazin-3-yl)-4-[5-(trifluoromethyl)-1,2,4-oxadiazol-3-yl]benzamide]
≥ 80%: pest or weed control at 200 ppm [1] | pest or weed control at 200 ppm [2] | inhibition of growth at 20 ppm [3]
